Results published in the NIST ThermoML archive (doi:10.1016/j.fluid.2006.09.019).

Details: Liquid

COC(=O)CO [methyl hydroxyethanoate]
Details | vapor or sublimation pressure [kPa]
293.23 K | 0.4864
303.17 K | 0.8459
313.27 K | 1.409
323.12 K | 2.311
333.28 K | 3.738
343.26 K | 5.905
353.25 K | 9.292
